Earlier results on three molecules are cited in patent US20180280562A1, “Fibrous Structures Comprising Sensates” (The Procter & Gamble Company, priority 2017, published 2018).

Structures are written as SMILES.

The conditions of the data set: concentration where the cooling effect could be clearly recognized.
In the case of `CC(C)[C@@H]1CC[C@@H](C)C[C@H]1O` [L-menthol], the cooling threshold entry is on record as “about 800 ppb”.

Regarding `CC(C)[C@@H]1CC[C@@H](C)C[C@@H]1O` [1-neomenthol], the cooling threshold result was “about 3,000 ppb”.

Consider `CC(C)[C@@H]1CC[C@@H](C)C[C@@H]1O` [d-neomenthol], for which the cooling threshold result was “about 25,000 ppb”.
